Test results from PMC9181987, “Disclosing the Potential of Fluorinated Ionic Liquids as Interferon-Alpha 2b Delivery Systems” (Nanomaterials, 2022).

Legend:
[1] = cited from earlier work
[2] = parameters: method as in doi:10.5772/INTECHOPEN.96336, doi:10.1016/j.molliq.2022.119285, PMID 25580898; settings: cited from earlier work
IFN-α 2b [3] = molecular target: T1, IFN-α 2b (Homo sapiens, UniProt P01563); assay: Intrinsic fluorescence spectroscopy of IFN-α 2b with FILs (λmax shift, Stern–Volmer quenching); type: binding
T1 construct: purchased Sigma-Aldrich SRP4595; host or cells: E. coli
T1 sequence (P01563 24-188): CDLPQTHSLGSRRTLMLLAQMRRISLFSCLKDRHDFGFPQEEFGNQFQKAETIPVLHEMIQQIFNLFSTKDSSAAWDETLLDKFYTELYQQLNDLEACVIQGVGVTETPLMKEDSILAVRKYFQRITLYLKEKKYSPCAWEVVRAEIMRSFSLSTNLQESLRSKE
Protocol: The concentrations were chosen to cover the range where the different aggregates of the FILs are formed. Samples, equilibrated for 30 min at room temperature, and 400 μL of each solution were transferred to a quartz cuvette of 10 mm pathlength and excited at 280 nm, collecting the fluorescence intensity in a wavelength range of 300 to 450 nm. The width of the excitation and emission slit was set to 5 nm for both cases. The spectra of FIL solutions (blanks) were discounted to the spectra of FIL + protein samples to avoid any possible effect of FIL concentration increment in the fluorescence intensity.
A very well-known equation, the Stern–Volmer, was used to characterize the quenching occurring in this region. This equation characterizes the collisional quenching that can occur when the excited state of the fluorophore is disabled due to contact with another molecule (quencher), without chemical alteration. Therefore, the collisional quenching is described by:(11) F0/F=1+K[Q]=1+kqτ0[Q] where F0 and F are the fluorescence intensities of the fluorophore in the absence and presence of the quencher, respectively, K is the Stern–Volmer quenching constant, kq is the biomolecular quenching constant, τ0 is the unquenched lifetime, and [Q] is the quencher concentration. […] This value gives information on the sensitivity of the fluorophore to a quencher.

[4] = Dynamic light scattering: aggregate size and polydispersity index; type: physicochemical; settings: 150 mM NaH2PO4, 25°C
Protocol: These concentrations were chosen to comprise two different aggregates of each FIL, above the 1st CAC and the 3rd CAC. […] Therefore, 20 μL was transferred into a quartz cell of 10 mm pathlength and measured at 25 °C.
Moreover, the polydispersity index (PdI) was obtained by DLS which determines the heterogeneity of the sample in the function of the size.

IFN-α 2b [5] = molecular target: T1, IFN-α 2b; assay: Microscale thermophoresis (MST) binding affinity of FILs with labelled IFN-α 2b; settings: for Kd: labelled IFN-α 2b 2.7 μM, 5 mM NaH2PO4 pH 7.4, 25 °C, ± = Kd confidence of the fitting
Protocol: Several dilution series of 16 samples of 20 μL were prepared in triplicate for each studied system. All the solutions were prepared in the buffer of the protein, 5 mM of NaH2PO4 (pH = 7.4), and PCR tubes. In the first tube (1 out 16) 20 μL of FIL stock solution was added at twofold the maximum concentration defined for each assay. In the remaining 15 tubes, 10 μL of buffer was added, followed by the series dilution of the FIL. […] The selected concentrations cover the range where the distinct CACs are formed in each FIL. The excitation power was determined by a pre-test and set to 20% whereas the MST power was set to medium (standard). The assays were executed in standard capillaries and triplicates. The results were processed using the MO.Affinity Analysis v2.3 software (NanoTemper Technologies, Munich, Germany).
In the process of labelling, commonly, one amine per protein is labelled, statistically distributing the position of the dye. […] As explained in the experimental section, in each run of MST, a maximum concentration is chosen and is consecutively diluted in 16 capillaries.

Row | Compound | toxicity [1] | miscibility in water [2] | Stern–Volmer quenching constant K (IFN-α 2b [3]; IFN-α 2b 20 μg/mL, region ~14 mM to ~110 mM FIL, 5 mM NaH2PO4 pH 7.4, excitation 280 nm) [mM⁻¹] | red shift of λmax (IFN-α 2b [3]; concentration close to the 3rd CAC, IFN-α 2b 20 μg/mL) [nm] | red shift of λmax (IFN-α 2b [3]; concentrations above 384 mM, IFN-α 2b 20 μg/mL) | biomolecular quenching constant kq (IFN-α 2b [3]; from K and τ0 of IFN-α 2b) [mM⁻¹ s⁻¹] | Polydispersity index (PdI) ([4]; 29.8 mM FIL) | Polydispersity index (PdI) ([4]; 248.0 mM FIL) | binding to IFN-α 2b (MST) (IFN-α 2b [5]; four runs, maximum concentrations 15, 35, 70, 375 mM) | Kd (IFN-α 2b [5]; assay 70 − 2.1 × 10^−3 mM FIL) [mM] | Kd (IFN-α 2b [5]; assay 375 − 1.1 × 10^−2 mM FIL) [mM]
1 | C[N+](C)(C)CCO.O=S(=O)([O-])C(F)(F)C(F)(F)C(F)(F)C(F)(F)F [[N1112(OH)][C4F9SO3], (2-Hydroxyethyl)trimethylammonium perfluorobutanesulfonate] | negligible toxicity | full miscibility in water | 0.00195 | 3 | up to 8 nm | 661000 | 0.784 | 0.543 | binding only occurs for the runs where concentrations were above the 2nd and 3rd CAC |  | 
2 | O=S(=O)(O)C(F)(F)C(F)(F)C(F)(F)C(F)(F)F [[N1112(OH)][C4F9SO3], (2-Hydroxyethyl)trimethylammonium perfluorobutanesulfonate] |  |  |  |  |  |  |  |  |  | 0.000597 | 54.7 ± 36.9
